What was measured:
NK1 receptor = biological target: T1, NK1 receptor (Cavia porcellus, UniProt P30547); assay: Test for NK1 receptor antagonist: substance P concentration-response in isolated guinea pig ileum, Schild analysis; settings: against substance P, 10 min pretreatment, method of Schild
T1 construct: from tissue; host or cells: isolated guinea pig ileum
Description: (1) Test for NK1 Receptor Antagonist
The method used was according to the method proposed by S. Dion et al.(Dion et al., Life Sciences 41(1987): 2269), to which minor modifications were made.
Guinea pigs were stunned by a blow on the head and were exsanguinated from the carotid artery and ilea were isolated. The ileum was mounted in an organ bath containing Tyrode's solution which was maintained at 32° C., and gased with 95% O2 and 5% CO2. The ileum was subjected to a resting tension of 1-gram and allowed to equilibrate for 20 minutes before the experiment was started. As a control, a concentration-response curve for substance P in the absence of any of test compounds was used. The NK1 receptor antagonist activity of each test compound was determined by a concentration-response curve obtained by pretreating at least three concentrations of the test compound for 10 minutes and subsequently applying substance P in a cumulative manner. The Kb values were determined according to the method of Schild and the results are shown in Table 1 (Schild Brit. J. Pharmacol. 14(1959): 49).
The composition of the Tyrode's solution was as follows: NaCl=136.9, KCl=2.7, CaCl2.2H2O=2.5, MgCl2.6H2O=1.0, NaH2PO4.2H2O=0.4, NaHCO3=11.9, glucose=11.1(mmol/L)

Guinea pigs = assay: Cystometry test on guinea pigs with cut spinal cord (effective bladder capacity); assay type: in vivo; settings: guinea pig
Description: (2) Cystometry Test on Guinea Pigs
The method used was according to the method proposed by J S. Peterson et al. (Peterson J S. et al., J. Pharmacol. Methods 21(1989): 231), to which minor modifications were made.
Guinea pigs were anesthetized with halothane and the tenth thoracic spinal cord was cut in each animal. Subsequently, both ureters were ligated and were cut on the kidney-side. Polyethylene catheters were inserted into the bladder to provide an injection pathway for physiological saline and a pathway for the measurement of intravesical pressure. Each animal was restricted in a Ballman cage and was left for more than 2 hours. Subsequently, room-temperature saline was injected through the bladder catheter into the bladder at a rate of 6 mL/hr to conduct a cystometry test. Once the effective bladder capacity was stabilized, a test compound was intravenously administered into the jugular vein. The effective bladder capacity is defined as the volume of saline injected from one urination to the next. The effect of each test compound was determined as the increase in the average bladder volume, which was determined based on the average bladder volume measured 30 minutes prior to the administration of the test compound and the average bladder volume measured every 30 minutes after the administration of the test compound.

T1 sequence (P30547 whole entry): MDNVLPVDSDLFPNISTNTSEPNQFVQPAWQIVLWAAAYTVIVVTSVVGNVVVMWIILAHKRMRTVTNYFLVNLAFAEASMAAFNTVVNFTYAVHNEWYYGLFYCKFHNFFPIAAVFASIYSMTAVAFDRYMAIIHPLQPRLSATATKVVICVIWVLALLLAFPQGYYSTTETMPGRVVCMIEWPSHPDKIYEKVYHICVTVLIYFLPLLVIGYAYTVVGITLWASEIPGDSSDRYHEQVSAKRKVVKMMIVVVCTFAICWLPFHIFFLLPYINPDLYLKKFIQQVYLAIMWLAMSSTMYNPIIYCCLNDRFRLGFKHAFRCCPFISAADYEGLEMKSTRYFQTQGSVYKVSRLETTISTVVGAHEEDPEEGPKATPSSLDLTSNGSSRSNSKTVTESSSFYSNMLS

Row | Kb (NK1 receptor) | SMILES | further results
1 | 440 pM | CC(=O)NC1CCN(c2nc3c(c(-c4ccccc4C)n2)C(=O)N(Cc2cc(C(F)(F)F)cc(C(F)(F)F)c2)CCCO3)C1 (centres unmarked) [Example 27, 5-[3,5-bis(trifluoromethyl)benzyl]-9-[3-(acetylamino)pyrrolidine-1-yl]-7-(2-methylphenyl)-6-oxo-2,3,4,5-tetrahydro-6H-pyrimido[4,5-b][1,5]oxazocine] | –
2 | 151 pM | CC(=O)NC1CCN(c2nc3c(c(-c4ccccc4C)n2)C(=O)N(Cc2cc(C(F)(F)F)cc(C(F)(F)F)c2)CCCO3)CC1 [Example 37, 9-[4-(acetylamino)piperidine-1-yl]-5-[3,5-bis(trifluoromethyl)benzyl]-7-(2-methylphenyl)-6-oxo-2,3,4,5-tetrahydro-6H-pyrimido[4,5-b][1,5]oxazocine] | –
3 | 6.31 pM | Cc1ccccc1-c1nc(N2CCN(C)CC2)nc2c1C(=O)N(Cc1cc(C(F)(F)F)cc(C(F)(F)F)c1)CCCO2 [Example 44, 5-[3,5-bis(trifluoromethyl)benzyl]-7-(2-methylphenyl)-9-(4-methylpiperazine-1-yl)-6-oxo-2,3,4,5-tetrahydro-6H-pyrimido[4,5-b][1,5]oxazocine] | –
4 | 214 pM | Cc1ccccc1-c1nc(N2CCC(NS(C)(=O)=O)CC2)nc2c1C(=O)N(Cc1cc(C(F)(F)F)cc(C(F)(F)F)c1)CCCO2 [Example 38, 5-[3,5-bis(trifluoromethyl)benzyl]-9-[4-(methylsulfonylamino)piperidine-1-yl]-7-(2-methylphenyl)-6-oxo-2,3,4,5-tetrahydro-6H-pyrimido[4,5-b][1,5]oxazocine] | –
5 | 79.4 pM | Cc1ccccc1-c1nc(N2CCS(=O)(=O)CC2)nc2c1C(=O)N(Cc1cc(C(F)(F)F)cc(C(F)(F)F)c1)CCCO2 [Example 20, 5-[3,5-bis(trifluoromethyl)benzyl]-9-(1,1-dioxothiomorpholine-4-yl)-7-(2-methylphenyl)-6-oxo-2,3,4,5-tetrahydro-6H-pyrimido[4,5-b][1,5]oxazocine] | Increase in bladder capacity (%) (Guinea pigs; 0.3 mg/kg i.v.): 40.4%

The remaining lines, values behind:

Row | SMILES | Kb (NK1 receptor) | further results
6 | O=C1c2c(nc(N3CCC(N4CCCC4)CC3)nc2-c2ccc(F)cc2)OCCCN1Cc1cc(C(F)(F)F)cc(C(F)(F)F)c1 [Example 13, 5-[3,5-bis(trifluoromethyl)benzyl]-7-(4-fluorophenyl)-6-oxo-9-[4-(pyrrolidine-1-yl)piperidine-1-yl]-2,3,4,5-tetrahydro-6H-pyrimido[4,5-b][1,5]oxazocine] | 217 pM | –
7 | CC(=O)N1CCCN(c2nc3c(c(-c4ccccc4C)n2)C(=O)N(Cc2cc(C(F)(F)F)cc(C(F)(F)F)c2)CCCO3)CC1 [Example 41, 9-(4-acetylhomopiperazine-1-yl)-5-[3,5-bis(trifluoromethyl)benzyl]-7-(2-methylphenyl)-6-oxo-2,3,4,5-tetrahydro-6H-pyrimido[4,5-b][1,5]oxazocine] | 308 pM | Increase in bladder capacity (%) (Guinea pigs; 0.3 mg/kg i.v.): 36.8%
8 | CC(=O)N1CCN(c2nc3c(c(-c4ccccc4C)n2)C(=O)N(Cc2cc(C(F)(F)F)cc(C(F)(F)F)c2)CCCO3)CC1 [Example 16, 9-(4-acetylpiperazine-1-yl)-5-[3,5-bis(trifluoromethyl)benzyl]-7-(2-methylphenyl)-6-oxo-2,3,4,5-tetrahydro-6H-pyrimido[4,5-b][1,5]oxazocine] | 105 pM | Increase in bladder capacity (%) (Guinea pigs; 0.3 mg/kg i.v.): 59.4%; melting point: 160.5 to 163.5 °C
9 | Cc1ccc(-c2c3n(c(=O)c4ncccc24)CC[C@@H](C)CN(Cc2cc(C(F)(F)F)cc(C(F)(F)F)c2)C3=O)cc1 [TAK-637, reference compound] | 269 pM | Increase in bladder capacity (%) (Guinea pigs; 0.3 mg/kg i.v.): 12.0%; Increase in bladder capacity (%) (Guinea pigs; 1 mg/kg i.v.): 23.8%; Increase in bladder capacity (%) (Guinea pigs; 3 mg/kg i.v.): 20.5%
10 | Cc1ccccc1-c1nc(N2CCCN(C)CC2)nc2c1C(=O)N(Cc1cc(C(F)(F)F)cc(C(F)(F)F)c1)CCCO2 [Example 26, 5-[3,5-bis(trifluoromethyl)benzyl]-9-(4-methylhomopiperazine-1-yl)-7-(2-methylphenyl)-6-oxo-2,3,4,5-tetrahydro-6H-pyrimido[4,5-b][1,5]oxazocine] | 398 pM | –
11 | Cc1ccccc1-c1nc(-n2ccnc2)nc2c1C(=O)N(Cc1cc(C(F)(F)F)cc(C(F)(F)F)c1)CCCO2 [Example 18, 5-[3,5-bis(trifluoromethyl)benzyl]-9-(imidazole-1-yl)-7-(2-methylphenyl)-6-oxo-2,3,4,5-tetrahydro-6H-pyrimido[4,5-b][1,5]oxazocine] | 459 pM | –
12 | O=C1c2c(nc(N3CCOCC3)nc2-c2ccccc2F)OCCCN1Cc1cc(C(F)(F)F)cc(C(F)(F)F)c1 [Example 2, 5-[3,5-bis(trifluoromethyl)benzyl]-7-(2-fluorophenyl)-9-(morpholine-4-yl)-6-oxo-2,3,4,5-tetrahydro-6H-pyrimido[4,5-b][1,5]oxazocine] | 294 pM | –
13 | Cc1ccccc1-c1nc(N2CCC(N(C)C)C2)nc2c1C(=O)N(Cc1cc(C(F)(F)F)cc(C(F)(F)F)c1)CCCO2 (centres unmarked) [Example 25, 5-[3,5-bis(trifluoromethyl)benzyl]-9-[3-(dimethylamino)pyrrolidine-1-yl]-7-(2-methylphenyl)-6-oxo-2,3,4,5-tetrahydro-6H-pyrimido[4,5-b][1,5]oxazocine] | 427 pM | –
14 | COc1ccccc1-c1nc(N2CCS(=O)(=O)CC2)nc2c1C(=O)N(Cc1cc(C(F)(F)F)cc(C(F)(F)F)c1)CCCO2 [Example 43, 5-[3,5-bis(trifluoromethyl)benzyl]-9-(1,1-dioxothiomorpholine-4-yl)-7-(2-methoxyphenyl)-6-oxo-2,3,4,5-tetrahydro-6H-pyrimido[4,5-b][1,5]oxazocine] | 123 pM | –
15 | Cc1ccccc1-c1nc(N2CCN(c3ncccn3)CC2)nc2c1C(=O)N(Cc1cc(C(F)(F)F)cc(C(F)(F)F)c1)CCCO2 [Example 14, 5-[3,5-bis(trifluoromethyl)benzyl]-7-(2-methylphenyl)-6-oxo-9-[4-(pyrimidine-2-yl)piperazine-1-yl]-2,3,4,5-tetrahydro-6H-pyrimido[4,5-b][1,5]oxazocine] | 798 pM | –
16 | COc1ccccc1-c1nc(N2CCN(C(C)=O)CC2)nc2c1C(=O)N(Cc1cc(C(F)(F)F)cc(C(F)(F)F)c1)CCCO2 [Example 29, 9-(4-acetylpiperazine-1-yl)-5-[3,5-bis(trifluoromethyl)benzyl]-7-(2-methoxyphenyl)-6-oxo-2,3,4,5-tetrahydro-6H-pyrimido[4,5-b][1,5]oxazocine] | 100 pM | –

— patent US6995153B2, “Fused bicyclic pyrimidine derivatives” (Kyorin Pharmaceutical. Co., Ltd., priority 2002, dated 2006)
